Assays:
mouse DGAT1 = target: T1, mouse DGAT1 (Mus musculus, UniProt Q9Z2A7); test: DGAT1 inhibitory effect test (microsome fraction, [14C]-oleoyl-CoA, triglyceride radioactivity by TLC); format: biochemical; conditions: 0.5 h; concentration of the test compound 0.1 μg/ml; mouse DGAT1 microsomes, 23° C., 30 minutes; read-out: Inhibitory ratio
T1 construct: made in house; host or cells: insect cells (High Five, Sf9, Sf21, etc.), baculovirus expression system (Invitrogen)
T1 sequence (Q9Z2A7 1-498): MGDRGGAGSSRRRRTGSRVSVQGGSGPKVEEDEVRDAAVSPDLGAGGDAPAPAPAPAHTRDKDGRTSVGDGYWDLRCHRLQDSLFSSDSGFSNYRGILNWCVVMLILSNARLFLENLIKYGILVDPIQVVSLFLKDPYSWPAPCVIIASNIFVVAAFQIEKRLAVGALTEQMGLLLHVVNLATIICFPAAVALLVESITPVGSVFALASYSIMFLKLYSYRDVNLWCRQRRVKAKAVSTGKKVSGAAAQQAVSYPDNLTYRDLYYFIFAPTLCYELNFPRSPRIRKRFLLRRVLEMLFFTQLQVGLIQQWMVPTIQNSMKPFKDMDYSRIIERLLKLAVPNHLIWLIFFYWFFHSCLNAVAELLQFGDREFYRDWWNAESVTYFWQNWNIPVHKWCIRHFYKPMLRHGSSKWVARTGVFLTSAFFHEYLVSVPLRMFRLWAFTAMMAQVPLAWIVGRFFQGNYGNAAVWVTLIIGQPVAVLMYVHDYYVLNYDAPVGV
Outline: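 Baculovirus-expressed mouse DGAT1 insect-cell microsomes (10 μg) were incubated 30 min at 23 °C, pH 8.0, with 0.5 mM 1,2-dioleoyl-sn-glycerol, 30 μM [14C]-oleoyl-CoA and 0.5% Triton X-100. [14C]-triglyceride was quantified after heptane extraction and TLC. Percent inhibition was taken against vehicle control, with 0-min background subtracted.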

O=C(Nc1ccc(C2CCN(C(=O)Nc3ccc(OCCO)cc3Cl)CC2)cc1)Nc1ccccc1F [Example 263, 4-{4-[3-(2-fluoro-phenyl)-ureido]-phenyl}-piperidine-1-carboxylic acid [2-chloro-4-(2-hydroxy-ethoxy)-phenyl]-amide]
inhibition at 0.1 µg/mL (mouse DGAT1): ≥ 50% | melting point: 166 to 171 °C

CCOc1cccc(NC(=O)Nc2ccc(C3CCN(C(=O)Nc4ccc(OCCO)cc4Cl)CC3)cc2)c1 [Example 264, 4-{4-[3-(3-ethoxy-phenyl)-ureido]-phenyl}-piperidine-1-carboxylic acid [2-chloro-4-(2-hydroxy-ethoxy)-phenyl]-amide]
inhibition at 0.1 µg/mL (mouse DGAT1): ≥ 50% | melting point: 129 to 134 °C

COc1ccccc1NC(=O)Nc1ccc2c(c1)CCN(C(=O)Nc1ccc(OCCO)cc1Cl)C2 [Example 265, 6-[3-(2-methoxy-phenyl)-ureido]-3,4-dihydro-1 H-isoquinoline-2-carboxylic acid [2-chloro-4-(2-hydroxy-ethoxy)-phenyl]-amide]
inhibition at 0.1 µg/mL (mouse DGAT1): ≥ 50% | melting point: 130 to 135 °C

COc1cc(NC(=O)Nc2ccc3c(c2)CCN(C(=O)Nc2ccc(OCCO)cc2Cl)C3)cc(OC)c1 [Example 266, 6-[3-(3,5-dimethoxy-phenyl)-ureido]-3,4-dihydro-1H-isoquinoline-2-carboxylic acid [2-chloro-4-(2-hydroxy-ethoxy)-phenyl]-amide]
inhibition at 0.1 µg/mL (mouse DGAT1): ≥ 50% | melting point: 105 to 110 °C

O=C(Nc1ccc2c(c1)CCN(C(=O)Nc1ccc(OCCO)cc1Cl)C2)Nc1ccccc1F [Example 267, 6-[3-(2-fluoro-phenyl)-ureido]-3,4-dihydro-1H-isoquinoline-2-carboxylic acid [2-chloro-4-(2-hydroxy-ethoxy)-phenyl]-amide]
inhibition at 0.1 µg/mL (mouse DGAT1): ≥ 50% | melting point: 183 to 186 °C

COc1ccc(C)cc1NC(=O)Nc1ccc(N2CCN(C(=O)Nc3ccc(OCCO)cc3Cl)CC2)nc1 [Example 268, 4-{5-[3-(2-methoxy-5-methyl-phenyl)-ureido]-pyridin-2-yl}-piperazine-1-carboxylic acid [2-chloro-4-(2-hydroxy-ethoxy)-phenyl]-amide]
inhibition at 0.1 µg/mL (mouse DGAT1): ≥ 50% | melting point: 196 to 197 °C

COc1ccccc1NC(=O)Nc1ccc(N2CCN(C(=O)Nc3ccc(OCCO)cc3Cl)CC2)c(Cl)c1 [Example 269, 4-{2-chloro-4-[3-(2-methoxy-phenyl)-ureido]-phenyl}-piperazine-1-carboxylic acid [2-chloro-4-(2-hydroxy-ethoxy)-phenyl]-amide]
inhibition at 0.1 µg/mL (mouse DGAT1): ≥ 50% | melting point: 173 to 175 °C

COc1cccnc1NC(=O)Nc1ccc(N2CCN(C(=O)Nc3ccc(OCCO)cc3Cl)CC2)cc1 [Example 270, 4-{4-[3-(3-methoxy-pyridin-2-yl)-ureido]-phenyl}-piperazine-1-carboxylic acid [2-chloro-4-(2-hydroxy-ethoxy)-phenyl]-amide]
inhibition at 0.1 µg/mL (mouse DGAT1): ≥ 50% | melting point: 215 to 216 °C

Cc1nc(NC(=O)Nc2ccc(N3CCN(C(=O)Nc4ccc(OCCO)cc4Cl)CC3)nc2)sc1C [Example 271, 4-{5-[3-(4,5-dimethyl-thiazol-2-yl)-ureido]-pyridin-2-yl}-piperazine-1-carboxylic acid [2-chloro-4-(2-hydroxy-ethoxy)-phenyl]-amide]
inhibition at 0.1 µg/mL (mouse DGAT1): ≥ 50% | melting point: 184 to 185 °C

Cc1nc(NC(=O)Nc2ccc(N3CCN(C(=O)Nc4ccc(OCCO)cc4Cl)CC3)cc2)sc1C [Example 272, 4-{4-[3-(4,5-dimethyl-thiazol-2-yl)-ureido]-phenyl}-piperazine-1-carboxylic acid [2-chloro-4-(2-hydroxy-ethoxy)-phenyl]-amide]
inhibition at 0.1 µg/mL (mouse DGAT1): ≥ 50% | melting point: 186 to 187 °C

COc1ccc(C)cc1NC(=O)Nc1ccc(C2=CCN(C(=O)Nc3cc(OCCO)ccc3Cl)CC2)cc1 [Example 273, 4-{4-[3-(2-methoxy-5-methyl-phenyl)-ureido]-phenyl}-3,6-dihydro-2H-pyridine-1-carboxylic acid [2-chloro-5-(2-hydroxy-ethoxy)-phenyl]-amide]
inhibition at 0.1 µg/mL (mouse DGAT1): ≥ 50% | melting point: 139 to 142 °C

COc1ccc(C)cc1NC(=O)Nc1ccc(C2CCN(C(=O)Nc3cc(OCCO)ccc3Cl)CC2)cc1 [Example 274, 4-{4-[3-(2-methoxy-5-methyl-phenyl)-ureido]-phenyl}-piperidine-1-carboxylic acid [2-chloro-5-(2-hydroxy-ethoxy)-phenyl]-amide]
inhibition at 0.1 µg/mL (mouse DGAT1): ≥ 50% | melting point: 202 to 205 °C

COc1ccc(C)cc1NC(=O)Nc1ccc(N2CCN(C(=O)Nc3ccc(OCC(O)CO)cc3C(F)(F)F)CC2)cc1 (stereo not shown) [Example 275, 4-{4-[3-(2-methoxy-5-methyl-phenyl)-ureido]-phenyl}-piperazine-1-carboxylic acid [4-(2,3-dihydroxy-propoxy)-2-trifluoromethyl-phenyl]-amide]
inhibition at 0.1 µg/mL (mouse DGAT1): ≥ 50% | melting point: 187 to 190 °C

COc1ccc(C)cc1NC(=O)Nc1ccc(N2CCN(C(=O)Nc3ccc(OCC(O)CO)cc3C)CC2)cc1 (stereo not shown) [Example 276, 4-{4-[3-(2-methoxy-5-methyl-phenyl)-ureido]-phenyl}-piperazine-1-carboxylic acid [4-(2,3-dihydroxy-propoxy)-2-methyl-phenyl]-amide]
inhibition at 0.1 µg/mL (mouse DGAT1): ≥ 50% | melting point: 148 to 150 °C

COc1ccc(C)cc1NC(=O)Nc1ccc(N2CCN(C(=O)Nc3ccc(OCC(O)CO)cc3Cl)CC2)cc1 (stereo not shown) [Example 277, 4-{4-[3-(2-methoxy-5-methyl-phenyl)-ureido]-phenyl}-piperazine-1-carboxylic acid [2-chloro-4-(2,3-dihydroxy-propoxy)-phenyl]-amide]
inhibition at 0.1 µg/mL (mouse DGAT1): ≥ 50% | melting point: 134 to 136 °C

O=C(Nc1ccc(N2CCN(C(=O)Nc3ccc(OCC(O)CO)cc3Cl)CC2)cc1)Nc1ccccc1F (stereo not shown) [Example 278, 4-{4-[3-(2-fluoro-phenyl)-ureido]-phenyl}-piperazine-1-carboxylic acid [2-chloro-4-(2,3-dihydroxy-propoxy)-phenyl]-amide]
inhibition at 0.1 µg/mL (mouse DGAT1): ≥ 50% | melting point: 189 to 190 °C

COc1ccc(F)cc1NC(=O)Nc1ccc(N2CCN(C(=O)Nc3ccc(OCC(O)CO)cc3C(F)(F)F)CC2)nc1 (stereo not shown) [Example 279, 4-{5-[3-(5-fluoro-2-methoxy-phenyl)-ureido]-pyridin-2-yl}-piperazine-1-carboxylic acid [4-(2,3-dihydroxy-propoxy)-2-trifluoromethyl-phenyl]-amide]
inhibition at 0.1 µg/mL (mouse DGAT1): ≥ 50% | melting point: 195 °C

COc1ccc(C)cc1NC(=O)Nc1ccc2c(c1)CCN(C(=O)Nc1ccc(OCC(O)CO)cc1Cl)C2 (stereo not shown) [Example 280, 6-[3-(2-methoxy-5-methyl-phenyl)-ureido]-3,4-dihydro-1H-isoquinoline-2-carboxylic acid [2-chloro-4-(2,3-dihydroxy-propoxy)-phenyl]-amide]
inhibition at 0.1 µg/mL (mouse DGAT1): ≥ 50% | melting point: 119 to 121 °C

COc1ccc(C)cc1NC(=O)Nc1ccc(C2=CCN(C(=O)Nc3ccc(OCC(O)CO)cc3Cl)CC2)cc1 (stereo not shown) [Example 281, 4-{4-[3-(2-methoxy-5-methyl-phenyl)-ureido]-phenyl}-3,6-dihydro-2H-pyridine-1-carboxylic acid [2-chloro-4-(2,3-dihydroxy-propoxy)-phenyl]-amide]
inhibition at 0.1 µg/mL (mouse DGAT1): ≥ 50% | melting point: 125 to 128 °C

COc1ccc(C)cc1NC(=O)Nc1ccc(C2=CCN(C(=O)Nc3ccc(OCC(O)CO)cc3C(F)(F)F)CC2)cc1 (stereo not shown) [Example 282, 4-{4-[3-(2-methoxy-5-methyl-phenyl)-ureido]-phenyl}-3,6-dihydro-2H-pyridine-1-carboxylic acid [4-(2,3-dihydroxy-propoxy)-2-trifluoromethyl-phenyl]-amide]
inhibition at 0.1 µg/mL (mouse DGAT1): ≥ 50% | melting point: 135 to 137 °C

COc1ccc(C)cc1NC(=O)Nc1ccc(C2CCN(C(=O)Nc3ccc(OCC(O)CO)cc3Cl)CC2)cc1 (stereo not shown) [Example 283, 4-{4-[3-(2-methoxy-5-methyl-phenyl)-ureido]-phenyl}-piperidine-1-carboxylic acid [2-chloro-4-(2,3-dihydroxy-propoxy)-phenyl]-amide]
inhibition at 0.1 µg/mL (mouse DGAT1): ≥ 50% | melting point: 179 to 181 °C

COc1ccccc1NC(=O)Nc1ccc2c(c1)CCN(C(=O)Nc1ccc(OCC(O)CO)cc1Cl)C2 (stereo not shown) [Example 284, 6-[3-(2-methoxy-phenyl)-ureido]-3,4-dihydro-1H-isoquinoline-2-carboxylic acid [2-chloro-4-(2,3-dihydroxy-propoxy)-phenyl]-amide]
inhibition at 0.1 µg/mL (mouse DGAT1): ≥ 50% | melting point: 107 to 111 °C

COc1cc(NC(=O)Nc2ccc3c(c2)CCN(C(=O)Nc2ccc(OCC(O)CO)cc2Cl)C3)cc(OC)c1 (stereo not shown) [Example 285, 6-[3-(3,5-dimethoxy-phenyl)-ureido]-3,4-dihydro-1H-isoquinoline-2-carboxylic acid [2-chloro-4-(2,3-dihydroxy-propoxy)-phenyl]-amide]
inhibition at 0.1 µg/mL (mouse DGAT1): ≥ 50% | melting point: 108 to 110 °C
